From US20260242371A1, “LIPID PRODRUGS OF BROM[…] USES THEREOF” (priority 2023, published 2026)

Columns and labels:
[1] = Pharmacokinetics of 2-bromo-LSD prodrugs in rats; settings: male, Sprague-Dawley, rat, plasma, iv
[2] = Metabolism identification (MetID) assay in rat hepatocytes; settings: 10 μM bromolysergide, 3 hours, 37 degrees Celsius
[3] = Pharmacokinetics of 2-bromo-LSD prodrugs in non-human primates; settings: cynomolgus monkey, plasma; for AUC(0-t) / Cmax: iv
[4] = target: 5-HT2A receptor (Homo sapiens, UniProt P28223); settings: Lewis, V. et al, Cell Reports 2023; cited from earlier work
[5] = Metabolism identification (MetID) assay in human hepatocytes; settings: 10 μM bromolysergide, 3 hours, 37 degrees Celsius
[6] = Metabolism identification (MetID) assay in human liver microsomes S9 fraction; settings: 10 μM bromolysergide, human liver microsomes S9 1 mg/mL, NADPH, one hour, 37° C.
[7] = patients given up to 22 mg; Schneckloth, R., et al., Circulation 1957; cited from earlier work
[8] = target: 5-HT2B receptor (Homo sapiens, UniProt P41595); settings: cited from earlier work
[9] = target: T1, recombinant human monoacylglyceride lipase (rhMAGL) (Homo sapiens, UniProt Q99685); test: In vitro monoglyceride stability of lipid prodrugs with lipoprotein lipase and rhMAGL; assay type: in vitro ADME; settings: 50 μM prodrug, 10 mg/mL BSA, LPL 300 units/mL, 180 vs 30 minutes, 37° C., scale −10 to 10
T1 sequence (Q99685 1-303): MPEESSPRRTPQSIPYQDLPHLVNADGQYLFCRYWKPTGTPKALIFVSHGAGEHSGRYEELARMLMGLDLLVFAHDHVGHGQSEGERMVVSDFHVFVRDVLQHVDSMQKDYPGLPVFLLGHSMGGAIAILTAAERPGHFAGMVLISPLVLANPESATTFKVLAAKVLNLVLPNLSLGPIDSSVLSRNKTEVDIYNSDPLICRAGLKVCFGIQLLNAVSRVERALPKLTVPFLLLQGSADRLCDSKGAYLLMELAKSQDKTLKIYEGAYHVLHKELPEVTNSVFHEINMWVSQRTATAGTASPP
Description: The stability of lipid prodrugs of 2-bromo-LSD was evaluated in the presence or absence of recombinant human monoacylglyceride lipase (rhMAGL). 50 µM of prodrug was incubated in 10 mg/mL BSA supplemented with lipoprotein lipase (300 units/mL) and rhMAGL (0-0.5 μg/mL). The concentration of MAGL may be adjusted based on observed activity. Reactions were initiated via the addition of prodrug and incubated at 37° C. for 180 minutes. Aliquots were removed at 30, 60, 120, and 180 minutes and the reaction quenched with the addition of cold acetonitrile spiked with internal standard(s) (1:3 sample to acetonitrile). Samples were vortexed and centrifuged and the supernatant transferred and diluted in 0.1% formic acid water (1:3 supernatant to 0.1% formic acid water). Samples were analyzed via LC-MS. Monoglyceride stability was calculated using the following equations:
LPL MG Ratio=MG Peak Area at 180 minutes for LPL only/MG Peak area at 30 minutes for LPL only
rhMAGLMG Ratio=MG Peak Area at 180 minutes for LPLand rhMAGL/MG Peak Area at 30 minutes for LPLand rhMAGL
MG Stability=((rhMAGLMG Ratio−(1−LPL MG Ratio))*10
Stability is calculated on a scale of −10 to 10, with 10 representing 100% monoglyceride remaining (i.e., highest stability) and −10 representing 100% monoglyceride loss (i.e., lowest stability). Monoglyceride stability is represented by the following categories, wherein A is a stability score of 5 to 10, B is a stability score of 0 to 5, C is a stability score of −5 to 0, and D is a stability score of −5 to −10.

Chain of 5-HT2A receptor (P28223 whole entry): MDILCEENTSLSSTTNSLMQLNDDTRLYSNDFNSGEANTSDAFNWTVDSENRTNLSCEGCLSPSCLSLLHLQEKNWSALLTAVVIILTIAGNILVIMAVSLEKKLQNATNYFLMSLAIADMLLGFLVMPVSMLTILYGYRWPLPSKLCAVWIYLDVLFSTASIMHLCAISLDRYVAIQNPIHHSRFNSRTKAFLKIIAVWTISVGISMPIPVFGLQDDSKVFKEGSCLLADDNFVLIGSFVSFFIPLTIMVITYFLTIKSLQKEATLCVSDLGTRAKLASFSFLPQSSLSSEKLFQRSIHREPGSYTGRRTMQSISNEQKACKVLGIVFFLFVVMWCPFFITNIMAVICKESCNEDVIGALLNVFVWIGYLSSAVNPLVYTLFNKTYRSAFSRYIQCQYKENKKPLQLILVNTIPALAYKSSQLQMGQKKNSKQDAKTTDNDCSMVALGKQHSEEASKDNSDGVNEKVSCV
Chain of 5-HT2B receptor (P41595 whole entry): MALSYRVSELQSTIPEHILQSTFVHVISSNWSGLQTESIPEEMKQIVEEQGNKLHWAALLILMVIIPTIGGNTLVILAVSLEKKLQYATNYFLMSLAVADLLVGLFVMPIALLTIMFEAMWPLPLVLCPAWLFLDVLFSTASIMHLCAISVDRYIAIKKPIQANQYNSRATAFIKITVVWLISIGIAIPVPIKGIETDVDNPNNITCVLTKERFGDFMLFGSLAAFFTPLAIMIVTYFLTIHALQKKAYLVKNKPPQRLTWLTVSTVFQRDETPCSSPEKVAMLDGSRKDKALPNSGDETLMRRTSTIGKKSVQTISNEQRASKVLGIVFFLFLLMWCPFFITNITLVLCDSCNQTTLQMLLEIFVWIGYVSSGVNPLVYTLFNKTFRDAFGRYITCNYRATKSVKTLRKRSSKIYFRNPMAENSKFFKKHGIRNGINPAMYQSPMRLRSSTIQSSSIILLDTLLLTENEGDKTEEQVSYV

With CCN(CC)C(=O)[C@@H]1C=C2c3cccc4[nH]c(Br)c(c34)C[C@H]2N(C)C1 [Compound 2BL, 2-bromo-lysergic acid diethylamide] the AUC(0-t) [1] was 0.93 ± 0.1 µM·h, the Cmax [1] was 890 ± 60 nM and the “% of Total Rat” value [2] was 18.5%. It also gave a Tmax ([3]; oral) of roughly 2 h, an AUC(0-t) ([3]; female) of 340 ± 38 ng·h/mL and a Cmax ([3]; female) of 340 ± 58 ng/mL. The AUC(0-t) ([3]; male) was 300 ± 40 ng·h/mL, the Cmax ([3]; male) was 280 ± 8.8 ng/mL and the “activity at 5-HT2A receptor” value [4] was “partial agonism”. For the same compound, the “% of Total Human” value [5] was 41.3%, the “% of Total Human_LM” value [6] was 30.0% and the hallucinations in patients [7] was “no hallucinations reported”. For the same compound, the “activity at 5-HT2B receptor” value [8] was “antagonist”.

For CN1C[C@H](C(=O)O)C=C2c3cccc4[nH]c(Br)c(c34)C[C@H]21 [Compound M346], the “% of Total Rat” value [2] was 0.5%, the “% of Total Human” value [5] was 14.3% and the “% of Total Human_LM” value [6] was 0.9%.

For CCNC(=O)[C@@H]1C=C2c3cccc4[nH]c(Br)c(c34)C[C@H]2NC1 [Compound M359], the “% of Total Rat” value [2] was 0.7%, the “% of Total Human” value [5] was 1.0% and the “% of Total Human_LM” value [6] was 1.2%.

For CCNC(=O)[C@@H]1C=C2c3cccc4[nH]c(Br)c(c34)C[C@H]2N(C)C1 [Compound M373], the “% of Total Rat” value [2] was 7.7%, the “% of Total Human” value [5] was 10.3% and the “% of Total Human_LM” value [6] was 19.6%.

For CCCCCCCC/C=C\CCCCCCCC(=O)OCC(COC(=O)CCCCCCC/C=C\CCCCCCCC)OC(=O)CC(C)CC(=O)Oc1ccc(Cn2c(Br)c3c4c(cccc42)C2=C[C@@H](C(=O)N(CC)CC)CN(C)[C@@H]2C3)cc1 (stereo partly shown) [Compound I-20, 2BL-PHB-C5bMe-2-TG-oleate], the “Monoacylglyceride Stability” value [9] was “A (A is a stability score of 5 to 10)”.

For CCCCCCCC(=O)OCC(COC(=O)CCCCCCC)OC(=O)CC(C)(C)CCC(=O)OCCCCC(=O)n1c(Br)c2c3c(cccc31)C1=C[C@@H](C(=O)N(CC)CC)CN(C)[C@@H]1C2 [Compound I-19, 2BL-FSI5-C6bbGMe-2-TG-octanoate], the “Monoacylglyceride Stability” value [9] was “A (A is a stability score of 5 to 10)”.

In the case of CN1C[C@H](C(N)=O)C=C2c3cccc4[nH]c(Br)c(c34)C[C@H]21 [Compound M345], the “% of Total Rat” value [2] is reported as 0.1%, the “% of Total Human” value [5] is reported as 0.4% and the “% of Total Human_LM” value [6] is reported as 0.2%.

In the case of CCN(CC)C(=O)[C@@H]1C=C2c3cccc4[nH]c(O)c(c34)C[C@H]2N(C)C1 [Compound M339], the “% of Total Rat” value [2] is reported as 3.9%, the “% of Total Human” value [5] is reported as 4.8% and the “% of Total Human_LM” value [6] is reported as 4.4%.

With CCCCCCCC/C=C\CCCCCCCC(=O)OCC(COC(=O)CCCCCCC/C=C\CCCCCCCC)OC(=O)CC(C)CC(=O)OCn1c(Br)c2c3c(cccc31)C1=C[C@@H](C(=O)N(CC)CC)CN(C)[C@@H]1C2 (stereo partly shown) [Compound I-4, 2BL-ASI-C5bMe-2-TG-oleate] the “Monoacylglyceride Stability” value [9] was “D (D is a stability score of −5 to −10)”.

In the case of CCCCCCCC(=O)OCC(COC(=O)CCCCCCC)OC(=O)CC(C)(C)CCC(=O)OCCCC(=O)n1c(Br)c2c3c(cccc31)C1=C[C@@H](C(=O)N(CC)CC)CN(C)[C@@H]1C2 [Compound I-22, 2BL-FSI4-C6bbGMe-2-TG-octanoate], the “Monoacylglyceride Stability” value [9] is reported as “A (A is a stability score of 5 to 10)”.

In the case of CCCCCCCC/C=C\CCCCCCCC(=O)OCC(COC(=O)CCCCCCC/C=C\CCCCCCCC)OC(=O)CC(C)CC(=O)Oc1ccc(COC(=O)n2c(Br)c3c4c(cccc42)C2=C[C@@H](C(=O)N(CC)CC)CN(C)[C@@H]2C3)cc1 (stereo partly shown) [Compound I-21, 2BL-CPHB-C5bMe-2-TG-oleate], the “Monoacylglyceride Stability” value [9] is reported as “A (A is a stability score of 5 to 10)”.

With CCCCCCCC/C=C\CCCCCCCC(=O)OCC(COC(=O)CCCCCCC/C=C\CCCCCCCC)OC(=O)CC(C)CCCCC(=O)OCn1c(Br)c2c3c(cccc31)C1=C[C@@H](C(=O)N(CC)CC)CN(C)[C@@H]1C2 (stereo partly shown) [Compound I-5, 2BL-ASI-C8bMe-2-TG-oleate] the “Monoacylglyceride Stability” value [9] was “C (C is a stability score of −5 to 0)”.

In the case of CCN(CC)C(=O)[C@@H]1C=C2c3cccc4[nH]c(Br)c(c34)C[C@H]2NC1 [Compound M387], the “% of Total Rat” value [2] is reported as 2.5%, the “% of Total Human” value [5] is reported as 3.0% and the “% of Total Human_LM” value [6] is reported as 3.0%.

In the case of CCCCCCCC/C=C\CCCCCCCC(=O)OCC(COC(=O)CCCCCCC/C=C\CCCCCCCC)OC(=O)CC(C)CCCCCCC(=O)n1c(Br)c2c3c(cccc31)C1=C[C@@H](C(=O)N(CC)CC)CN(C)[C@@H]1C2 (stereo partly shown) [Compound I-24, 2BL-C10bMe-2-TG-oleate], the “Monoacylglyceride Stability” value [9] is reported as “A (A is a stability score of 5 to 10)”.

With CCCCCCCC/C=C\CCCCCCCC(=O)OCC(COC(=O)CCCCCCC/C=C\CCCCCCCC)OC(=O)CC(C)CCCCCCCCC(=O)OCn1c(Br)c2c3c(cccc31)C1=C[C@@H](C(=O)N(CC)CC)CN(C)[C@@H]1C2 (stereo partly shown) [Compound I-6, 2BL-ASI-C12bMe-2-TG-oleate] the “Monoacylglyceride Stability” value [9] was “C (C is a stability score of −5 to 0)”.

For CCCCCCCC/C=C\CCCCCCCC(=O)OCC(COC(=O)CCCCCCC/C=C\CCCCCCCC)OC(=O)CC(C)CCCCCCC(C)CC(=O)n1c(Br)c2c3c(cccc31)C1=C[C@@H](C(=O)N(CC)CC)CN(C)[C@@H]1C2 (stereo partly shown) [Compound I-3, 2BL-C12b′bMe-2-TG-oleate], the “Monoacylglyceride Stability” value [9] was “B (B is a stability score of 0 to 5)”.

In the case of CCCCCCCC/C=C\CCCCCCCC(=O)OCC(COC(=O)CCCCCCC/C=C\CCCCCCCC)OC(=O)CC(C)CC(=O)OCCCCC(=O)n1c(Br)c2c3c(cccc31)C1=C[C@@H](C(=O)N(CC)CC)CN(C)[C@@H]1C2 (stereo partly shown) [Compound I-17, 2BL-FSI5-C5bMe-2-TG-oleate], the “Monoacylglyceride Stability” value [9] is reported as “A (A is a stability score of 5 to 10)”.

In the case of CCCCCCCC(=O)OCC(COC(=O)CCCCCCC)OC(=O)CC(C)CC(=O)OCOC(=O)n1c(Br)c2c3c(cccc31)C1=C[C@@H](C(=O)N(CC)CC)CN(C)[C@@H]1C2 (stereo partly shown) [Compound I-7, 2BL-CASI-C5bMe-2-TG-octanoate], the “Monoacylglyceride Stability” value [9] is reported as “A (A is a stability score of 5 to 10)”.

For CCCCCCCC(=O)OCC(COC(=O)CCCCCCC)OC(=O)CC(C)(C)CC(=O)OCn1c(Br)c2c3c(cccc31)C1=C[C@@H](C(=O)N(CC)CC)CN(C)[C@@H]1C2 [Compound I-28, 2BL-ASI-C5bbGMe-2-TG-octanoate], the “Monoacylglyceride Stability” value [9] was “D (D is a stability score of −5 to −10)”.
